Assay results: US20230146455A1, “TREATMENT OF INFLAMMATORY DISEASES WITH PEPTIDES AND PHARMACEUTICAL COMPOSITIONS” (Yuyu Pharma, Inc., priority 2020, published 2023)
Values joined by “and” are separate entries in the source; they are usually repeats but may differ in a detail not shown here. Identical values can stand only once. Where a SMILES comes first, the peptide text is derived from it. [ ]: non-standard residue; d: D form. Hyp = O=C(O)[C@@H]1C[C@@H](O)CN1

Legend:
CCL2/MCP-1 = assay: Example 8 main study Luminex, LPS hPBMCs: CCL2/MCP-1; format: cell-based, human; details: for CCL2/MCP-1 Concentration: single replicates
Method: (§1) Human PBMCs were pretreated with YY-101, YDE-011, YDE-043 or reference compound; Xiidra® at various concentration (ranging from […] to 500 nM) for 2 h before stimulation. An equal volume of 0.5% DMSO was used as a vehicle control. Then, the cells were treated with LPS at 5 ug/ml, which was selected based on the pilot study. The supernatants from treated cells were harvested at 24 h and placed in a 96 well for Luminex cytokine & chemokine profiling using a Luminex 200 multiplex assay (Luminex; R&D system, USA).
(§2) The main study arm with triplicate wells per group in a 24-well plate: • 1. Blank • 2. PBMC: 0.5% DMSO • 3. PBMC+LPS (5 ug/ml) • 4. PBMC+YY-101 500 nM • 5. PBMC+YY-101 50 nM • 6. PBMC+YY-101 5 nM • 7. PBMC+YY-101 0.5 nM • 8. PBMC+LPS (5 ug/ml)+Xiidra® 500 nM • 9. PBMC+LPS (5 ug/ml)+Xiidra® 50 nM • 10. PBMC+LPS (5 ug/ml)+Xiidra® 5 nM • 11. PBMC+LPS (5 ug/ml)+Xiidra® 0.5 nM • 12. PBMC+LPS (5 ug/ml)+Xiidra® 0.05 nM • 13. PBMC+LPS (5 ug/ml)+Xiidra® 0.005 nM • 14. PBMC+LPS (5 ug/ml)+YY-101 500 nM • 15. PBMC+LPS (5 ug/ml)+YY-101 50 nM • 16. PBMC+LPS (5 ug/ml)+YY-101 5 nM • 17. PBMC+LPS (5 ug/ml)+YY-101 0.5 nM • 18. PBMC+LPS (5 ug/ml)+YY-101 0.05 nM • 19. PBMC+LPS (5 ug/ml)+YY-101 0.005 nM • 20. PBMC+LPS (5 ug/ml)+YDE-011 500 nM • 21. PBMC+LPS (5 ug/ml)+YDE-011 50 nM • 22. PBMC+LPS (5 ug/ml)+YDE-011 5 nM • 23. PBMC+LPS (5 ug/ml)+YDE-011 0.5 nM • 24. PBMC+LPS (5 ug/ml)+YDE-011 0.05 nM • 25. PBMC+LPS (5 ug/ml)+YDE-011 0.005 nM • 26. PBMC+LPS (5 ug/ml)+YDE-043 500 nM • 27. PBMC+LPS (5 ug/ml)+YDE-043 50 nM • 28. PBMC+LPS (5 ug/ml)+YDE-043 5 nM • 29. PBMC+LPS (5 ug/ml)+YDE-043 0.5 nM • 30. PBMC+LPS (5 ug/ml)+YDE-043 0.05 nM • 31. PBMC+LPS (5 ug/ml)+YDE-043 0.005 nM
(§3) Multiplex assay was used to measure 30 cytokines and chemokines. The 1:200 diluted cell supernatant and serial dilution of the standard were dispensed into a 96 well plate at 50 ul/well. Then, the pre-mixed cocktail of antibody-coated magnetic beads was dispensed at 50 ul/well and incubated at room temperature for 2 h in a horizontal orbital microplate shaker at 800±500 rpm. The beads were washed using a magnetic device to prevent loss. The biotin-antibody was dispensed in 50 ul of each well and incubated at room temperature for 1 h in a shaker at 800±500 rpm. After washing, streptavidin-PE was added at 50 ul/well and incubated at room temperature for 30 min in a shaker under the same conditions. Finally, after washing, wash buffer (100 ul/well) was added to the plate and incubated in a shaker for 2 min. The Luminex™ 200 setting were set according to the manufacturer's protocol. The data was calculated with a standard five-parameter logistic nonlinear regression analysis of the data (xPonent software 4.2, USA). Results were presented as concentration (ng/ml or pg/ml).

Leptin = assay: Example 8 main study Luminex, LPS hPBMCs: Leptin; format: cell-based, human; details: PBMC + LPS(5 ug/ml)
Method: as §1, §2, §3

IL-6 = assay: Example 8 main study Luminex, LPS hPBMCs: IL-6; format: cell-based, human; details: for IL-6 Concentration: single replicates (1st, 2nd, 3rd)
Method: as §1, §2, §3

[1] = test system: cytokine and chemokine release in human peripheral blood mononuclear cells (hPBMCs); assay: Luminex multiplex, 30 cytokines and chemokines, LPS stimulated hPBMCs, main study (Example 8, Study 1), whole panel; format: cell-based; details: LPS 5 ug/mL 24 hrs; up to 500 nM
Method: Human PBMCs frozen in a cryopreserve was thawed, washed with Hank's Balanced Salt Solution containing 10% Fetal bovine serum, and seeded onto a 24-well plate at a density of 1×10^6 cells/well with culture RPMI media containing 10% Fetal bovine serum in growth media in a 24 well plate for 12, 24, and 48 hrs and maintained at 37° C. in an atmosphere of 95% air and 5% CO2.
as §1, §2
as §3, with “After washing, streptavidin-PE was added at 50 ul/well and incubated at room temperature for 30 min in a shaker under the same conditions. Finally, after washing, wash buffer (100 ul/well) was added to the plate and incubated in a shaker for 2 min. The Luminex™ 200 setting were set according to the manufacturer's protocol.” left out, “Results were presented as concentration (ng/ml or pg/ml).” left out

[2] = PBMC + LPS(5 ug/ml) + YDE011 0.005 nM
[3] = PBMC + LPS(5 ug/ml) + YDE011 0.05 nM
[4] = PBMC + LPS(5 ug/ml) + YDE011 0.5 nM
[5] = PBMC + LPS(5 ug/ml) + YDE011 5 nM
[6] = PBMC + LPS(5 ug/ml) + YDE011 50 nM
[7] = PBMC + LPS(5 ug/ml) + YDE011 500 nM
[8] = at as low as 5 μM, LPS 5 ug/mL 24 hrs
[9] = PBMC + LPS(5 ug/ml) + test article 0.005 nM
[10] = PBMC + LPS(5 ug/ml) + test article 0.05 nM
[11] = PBMC + LPS(5 ug/ml) + test article 0.5 nM
[12] = PBMC + LPS(5 ug/ml) + test article 5 nM
[13] = PBMC + LPS(5 ug/ml) + test article 50 nM
[14] = PBMC + LPS(5 ug/ml) + test article 500 nM

CC(C)C[C@H](NC(=O)CNC(=O)[C@H](CC(C)C)NC(=O)[C@H](CCC(N)=O)NC(=O)CNC(=O)[C@@H]1C[C@@H](O)CN1)C(=O)N[C@@H](C)C(=O)NCC(=O)N1CCC[C@H]1C(=O)N[C@@H](CCCCN)C(=O)O [YDE-011] (H-[Hyp]GQLGLAGPK-OH)
CCL2/MCP-1 Concentration, Mean (CCL2/MCP-1; [2]): 4425.2 pg/mL | CCL2/MCP-1 Concentration (CCL2/MCP-1; [2]): 4425.5 pg/mL and 4528.4 pg/mL and 4321.5 pg/mL | CCL2/MCP-1 Concentration, Mean (CCL2/MCP-1; [3]): 4442.7 pg/mL | CCL2/MCP-1 Concentration (CCL2/MCP-1; [3]): 4425.5 pg/ml (2×) and 4477.1 pg/ml | CCL2/MCP-1 Concentration, Mean (CCL2/MCP-1; [4]): 4303.7 pg/mL | CCL2/MCP-1 Concentration (CCL2/MCP-1; [4]): 4425.5 pg/mL and 4269.1 pg/mL and 4216.3 pg/mL | CCL2/MCP-1 Concentration, Mean (CCL2/MCP-1; [5]): 4178.7 pg/mL | CCL2/MCP-1 Concentration (CCL2/MCP-1; [5]): 3893.1 pg/ml and 4321.5 pg/ml (2×) | CCL2/MCP-1 Concentration, Mean (CCL2/MCP-1; [6]): 4173.5 pg/mL | CCL2/MCP-1 Concentration (CCL2/MCP-1; [6]): 4528.4 pg/mL and 3670.6 pg/mL and 4321.5 pg/mL | CCL2/MCP-1 Concentration, Mean (CCL2/MCP-1; [7]): 4170.5 pg/mL | CCL2/MCP-1 Concentration (CCL2/MCP-1; [7]): 4731.0 pg/mL and 3670.6 pg/mL and 4109.9 pg/mL | LPS-induced CCL-2 (in words) (CCL2/MCP-1; [8]): significantly reduced | Leptin Concentration (pg/ml), Mean (Leptin; test article 0.005 nM): 14975.6 pg/mL | Leptin Concentration (pg/ml), single replicates (Leptin; test article 0.005 nM): 17222.7 pg/ml (2×) and 10481.4 pg/ml | Leptin Concentration (pg/ml), Mean (Leptin; test article 0.05 nM): 14835.2 pg/mL | Leptin Concentration (pg/ml), single replicates (Leptin; test article 0.05 nM): 19789.4 pg/mL and 10481.4 pg/mL and 14234.9 pg/mL | Leptin Concentration (pg/ml), Mean (Leptin; test article 0.5 nM): 9683.0 pg/mL | Leptin Concentration (pg/ml), single replicates (Leptin; test article 0.5 nM): 10481.4 pg/mL and 4332.6 pg/mL and 14234.9 pg/mL | Leptin Concentration (pg/ml), Mean (Leptin; test article 5 nM): 10777.7 pg/mL | Leptin Concentration (pg/ml), single replicates (Leptin; test article 5 nM): <98.95 pg/mL and 4332.6 pg/mL and 17222.7 pg/mL | Leptin Concentration (pg/ml), Mean (Leptin; test article 50 nM): 12358.1 pg/mL | Leptin Concentration (pg/ml), single replicates (Leptin; test article 50 nM): 10481.4 pg/mL and 14234.9 pg/mL and <98.95 pg/mL | Leptin Concentration (pg/ml), Mean (Leptin; test article 500 nM): 13896.3 pg/mL | Leptin Concentration (pg/ml), single replicates (Leptin; test article 500 nM): 19789.4 pg/mL and <98.95 pg/mL and 8003.2 pg/mL | IL-6 Concentration, Mean (IL-6; [9]): 16114.6 pg/mL | IL-6 Concentration (IL-6; [9]): 16843.8 pg/mL and 15250.9 pg/mL and 16249.2 pg/mL | IL-6 Concentration, Mean (IL-6; [10]): 18589.3 pg/mL | IL-6 Concentration (IL-6; [10]): 18843.4 pg/mL and 18343.3 pg/mL and 18581.4 pg/mL | IL-6 Concentration, Mean (IL-6; [11]): 15456.8 pg/mL | IL-6 Concentration (IL-6; [11]): 15322.2 pg/mL and 15654.9 pg/mL and 15393.5 pg/mL | IL-6 Concentration, Mean (IL-6; [12]): 13541.9 pg/mL | IL-6 Concentration (IL-6; [12]): 12094.3 pg/mL and 12947.9 pg/mL and 15583.6 pg/mL | IL-6 Concentration, Mean (IL-6; [13]): 14621.7 pg/mL | IL-6 Concentration (IL-6; [13]): 17248.3 pg/mL and 9892.0 pg/mL and 16724.9 pg/mL | IL-6 Concentration, Mean (IL-6; [14]): 14568.3 pg/mL | IL-6 Concentration (IL-6; [14]): 19367.5 pg/mL and 9383.5 pg/mL and 14953.9 pg/mL | LPS-induced IL-6 (in words) (IL-6; [8]): significantly reduced | LPS-induced cytokine/chemokine levels, whole panel (in words) [1]: potently and significantly reduced pro-inflammatory cytokine/chemokine production
